This note sets out measurements from patent publication US12310975B2, “Modulators of BCL6 proteolysis and associated methods of use” (Arvinas Operations, Inc., priority 2019, dated 2025).

pIC50: −log10 of the molar value.

Assay [1] deals with T1, BCL6 (Homo sapiens (Human), UniProt P41182). Briefly: BCL6 TR-FRET assay (BCL6-Avitag-Biotin / BCoR-Cy5 peptide). It counts as binding. As to conditions: for pIC50: read-out: IC50. In outline:
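TR-FRET displacement assay: biotinylated His-SUMO-BCL6-Avitag (2 nM) pre-incubated 30 min at room temperature with compound (12-point 3-fold titration), then BCoR-Cy5 peptide (100 nM) and Eu-streptavidin (2 nM) added. Buffer: 50 mM HEPES pH 7.5, 125 mM NaCl, 0.01% Triton X, glutathione or DTT, 0.03% BSA. Read after 2 h.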
For orientation: In TR-FRET formats the signal depends on donor and acceptor labels being close together.

For assay [2], the target named is T1, BCL6. The assay is described as follows: Immunofluorescence high content imaging of BCL6 degradation in T47D cells. Particulars: for Dmax: T47D. In kind it is cell-based. In outline: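 T47D, 3 d compound exposure, 11-pt 3-fold series, top 0.1 or 1 μM final. Fix 4% PFA, Triton permeabilize, anti-BCL6 primary overnight 4 °C, Alexa-488 secondary. High-content imaging 10×, 4 fields/well, top-hat smoothing.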

`CNC(=O)COc1cc2cc(Nc3nc(N4CCN5CCN(c6ccc7c(c6)C(=O)N(C6CCC(=O)NC6=O)C7=O)CC5C4)ncc3Cl)ccc2n(C)c1=O` (centres unmarked) [compound 234, 2-((6-((5-chloro-2-(8-(2-(2,6-dioxopiperidin-3-yl)-1,3-dioxoisoindolin-5-yl)octahydro-2H-pyrazino[1,2-a]pyrazin-2-yl)pyrimidin-4-yl)amino)-1-methyl-2-oxo-1,2-dihydroquinolin-3-yl)oxy)-N-methylacetamide]: the EC50 – broadly, the concentration giving half of the maximal effect – on BCL6 [1] is less than 10 nM. On BCL6 [2], the IC50 (commonly the concentration needed to halve the response being measured) is not below 100 nM.
In the case of `CNC(=O)COc1cc2cc(Nc3nc(N4CCC(N5CCC6(CCN(c7ccc8c(c7)C(=O)N(C7CCC(=O)NC7=O)C8=O)C6)CC5)CC4)ncc3Cl)ccc2n(C(C)C)c1=O` (centres unmarked) [compound 515, 2-[(6-{[5-chloro-2-(4-{2-[2-(2,6-dioxopiperidin-3-yl)-1,3-dioxo-2,3-dihydro-1H-isoindol-5-yl]-2,8-diazaspiro[4.5]decan-8-yl}piperidin-1-yl)pyrimidin-4-yl]amino}-2-oxo-1-(propan-2-yl)-1,2-dihydroquinolin-3-yl)oxy]-N-methylacetamide], the pIC50 (as a rule, the negative decadic logarithm of the IC50, by convention in mol/L) on BCL6 [1] was 7.30 to 8.00. In addition, on BCL6 [2], the Dmax (usually the greatest extent of degradation seen) is not below 70%.
Taken in the same sequence, the figures for `CNC(=O)COc1cc2cc(Nc3nc(N4CCC(OC5CC6(CCN(c7cccc8c7CN(C7CCC(=O)NC7=O)C8=O)CC6)C5)CC4)ncc3Cl)ccc2n(C(C)C)c1=O` (centres unmarked) [compound 446, 2-{[6-({5-chloro-2-[4-({7-[2-(2,6-dioxopiperidin-3-yl)-1-oxo-2,3-dihydro-1H-isoindol-4-yl]-7-azaspiro[3.5]nonan-2-yl}oxy)piperidin-1-yl]pyrimidin-4-yl}amino)-2-oxo-1-(propan-2-yl)-1,2-dihydroquinolin-3-yl]oxy}-N-methylacetamide] were more than 8.00 and not below 70%.
Regarding `CNC(=O)COc1cc2cc(Nc3nc(N4CCC(OC5CCN(c6ccc7c(c6)C(=O)N(C6CCC(=O)NC6=O)C7=O)CC5)CC4)ncc3Cl)ccc2n(C)c1=O` (centres unmarked) [compound 221, 2-((6-((5-chloro-2-(4-((1-(2-(2,6-dioxopiperidin-3-yl)-1,3-dioxoisoindolin-5-yl)piperidin-4-yl)oxy)piperidin-1-yl)pyrimidin-4-yl)amino)-1-methyl-2-oxo-1,2-dihydroquinolin-3-yl)oxy)-N-methylacetamide], the EC50 at BCL6 [1] is more than 100 nM. On BCL6 [2], this compound had an IC50 of less than 10 nM and a Dmax of 50 to 70%.
With `CNC(=O)COc1cc2cc(Nc3nc(N4CCC(CN5CCC6(CC5)CCN(c5ccc7c(c5)C(=O)N(C5CCC(=O)NC5=O)C7=O)C6)CC4)ncc3Cl)ccc2n(C(C)C)c1=O` (centres unmarked) [compound 489, 2-{[6-({5-chloro-2-[4-({2-[2-(2,6-dioxopiperidin-3-yl)-1,3-dioxo-2,3-dihydro-1H-isoindol-5-yl]-2,8-diazaspiro[4.5]decan-8-yl}methyl)piperidin-1-yl]pyrimidin-4-yl}amino)-2-oxo-1-(propan-2-yl)-1,2-dihydroquinolin-3-yl]oxy}-N-methylacetamide], the pIC50 on BCL6 [1] was more than 8.00. Besides, the Dmax at BCL6 [2] is 50 to 70%.
For `CNC(=O)COc1cc2cc(Nc3nc(N4CCC5(CC4)CN(CC4CCN(c6cccc(C(=O)NC7CCC(=O)NC7=O)c6F)CC4)C5)ncc3Cl)ccc2n(C(C)C)c1=O` (centres unmarked) [compound 450, 3-[4-({7-[5-chloro-4-({3-[(methylcarbamoyl)methoxy]-2-oxo-1-(propan-2-yl)-1,2-dihydroquinolin-6-yl}amino)pyrimidin-2-yl]-2,7-diazaspiro[3.5]nonan-2-yl}methyl)piperidin-1-yl]-N-(2,6-dioxopiperidin-3-yl)-2-fluorobenzamide], the pIC50 at BCL6 [1] is more than 8.00. Further, the Dmax at BCL6 [2] was not below 70%.
In the same order, the values of `CNC(=O)COc1cc2cc(Nc3nc(N4CCC(CN5CCC6(C5)CN(c5cccc7c5C(=O)N(C5CCC(=O)NC5=O)C7=O)C6)CC4)ncc3Cl)ccc2n(C(C)C)c1=O` (centres unmarked) [compound 502, 2-{[6-({5-chloro-2-[4-({2-[2-(2,6-dioxopiperidin-3-yl)-1,3-dioxo-2,3-dihydro-1H-isoindol-4-yl]-2,6-diazaspiro[3.4]octan-6-yl}methyl)piperidin-1-yl]pyrimidin-4-yl}amino)-2-oxo-1-(propan-2-yl)-1,2-dihydroquinolin-3-yl]oxy}-N-methylacetamide] are more than 8.00 and 50 to 70%.
`Cn1c(=O)c(Cn2cccn2)cc2cc(Nc3nc(N4CCC(CN5CCN(c6ccc7c(c6)C(=O)N(C6CCC(=O)NC6=O)C7=O)CC5)CC4)ncc3Cl)ccc21` (centres unmarked) [compound 225, 5-(4-((1-(4-((3-((1H-pyrazol-1-yl)methyl)-1-methyl-2-oxo-1,2-dihydroquinolin-6-yl)amino)-5-chloropyrimidin-2-yl)piperidin-4-yl)methyl)piperazin-1-yl)-2-(2,6-dioxopiperidin-3-yl)isoindoline-1,3-dione] yielded an EC50 at BCL6 [1] of more than 100 nM. This compound registered an IC50 against BCL6 [2] not below 100 nM.
